# From patent US10131652B2, “Pyrimidinyloxy benzene derivatives as herbicides” (E. I. DU PONT DE NEMOURS AND COMPANY, priority 2014, dated 2018)
# Read-outs that look alike come from different tables or passages of the source.
# Key:
# Assay in all cases: Test E pre-/postemergence plant response
# Assay type in all cases: in vivo
# [1] = tested on: downy bromegrass (Bromus tectorum); settings: scale 0 to 100, read-out: Plant response rating, Bromegrass, Downy; for pest or weed control at 16 g/ha: 16 g ai/ha; for pest or weed control at 31 g/ha: 31 g ai/ha; for pest or weed control at 62 g/ha: 62 g ai/ha; for pest or weed control at 125 g/ha: 125 g ai/ha
# Summary of the method: (§1)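 Visual scores on a 0–100 scale (100 = complete control) were assigned against untreated controls 7–21 days after treatment in a controlled environment. Compounds, formulated with solvent plus surfactant, were applied to pre-emergence silt-loam sowings or to 1- to 4-leaf plants (2–18 cm) in potting medium.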
# kochia (Kochia scoparia) = settings: Bassia scoparia, scale 0 to 100, read-out: Plant response rating, Kochia; for pest or weed control at 16 g/ha: 16 g ai/ha; for pest or weed control at 31 g/ha: 31 g ai/ha; for pest or weed control at 62 g/ha: 62 g ai/ha; for pest or weed control at 125 g/ha: 125 g ai/ha
# Summary of the method: as §1
# [2] = tested on: speedwell (bird's-eye speedwell, Veronica persica); settings: scale 0 to 100, read-out: Plant response rating, Speedwell; for pest or weed control at 16 g/ha: 16 g ai/ha; for pest or weed control at 62 g/ha: 62 g ai/ha; for pest or weed control at 125 g/ha: 125 g ai/ha
# Summary of the method: as §1
# [3] = tested on: wild radish (Raphanus raphanistrum); settings: scale 0 to 100, read-out: Plant response rating, Radish, Wild; for pest or weed control at 16 g/ha: 16 g ai/ha; for pest or weed control at 31 g/ha: 31 g ai/ha; for pest or weed control at 62 g/ha: 62 g ai/ha; for pest or weed control at 125 g/ha: 125 g ai/ha
# Summary of the method: as §1
# [4] = tested on: deadnettle (henbit deadnettle, Lamium amplexicaule); settings: scale 0 to 100, read-out: Plant response rating, Deadnettle; for pest or weed control at 16 g/ha: 16 g ai/ha; for pest or weed control at 31 g/ha: 31 g ai/ha; for pest or weed control at 62 g/ha: 62 g ai/ha; for pest or weed control at 125 g/ha: 125 g ai/ha
# Summary of the method: as §1
# [5] = tested on: chamomile (scentless chamomile, Matricaria inodora); settings: Tripleurospermum inodorum, scale 0 to 100, read-out: Plant response rating, Chamomile; for pest or weed control at 16 g/ha: 16 g ai/ha; for pest or weed control at 31 g/ha: 31 g ai/ha; for pest or weed control at 62 g/ha: 62 g ai/ha; for pest or weed control at 125 g/ha: 125 g ai/ha
# Summary of the method: as §1
# [6] = tested on: wild buckwheat (Polygonum convolvulus); settings: Fallopia convolvulus, scale 0 to 100, read-out: Plant response rating, Buckwheat, Wild; for pest or weed control at 16 g/ha: 16 g ai/ha; for pest or weed control at 31 g/ha: 31 g ai/ha; for pest or weed control at 62 g/ha: 62 g ai/ha; for pest or weed control at 125 g/ha: 125 g ai/ha
# Summary of the method: as §1
# [7] = tested on: field poppy (Papaver rhoeas); settings: scale 0 to 100, read-out: Plant response rating, Field Poppy; for pest or weed control at 16 g/ha: 16 g ai/ha; for pest or weed control at 31 g/ha: 31 g ai/ha; for pest or weed control at 62 g/ha: 62 g ai/ha; for pest or weed control at 125 g/ha: 125 g ai/ha
# Summary of the method: as §1
# [8] = tested on: wild mustard (Sinapis arvensis); settings: Brassica, scale 0 to 100, read-out: Plant response rating, Mustard, Wild; for pest or weed control at 16 g/ha: 16 g ai/ha; for pest or weed control at 31 g/ha: 31 g ai/ha; for pest or weed control at 62 g/ha: 62 g ai/ha; for pest or weed control at 125 g/ha: 125 g ai/ha
# Summary of the method: as §1
# wild oat (Avena fatua) = settings: scale 0 to 100, read-out: Plant response rating, Oat, Wild; for pest or weed control at 16 g/ha: 16 g ai/ha; for pest or weed control at 31 g/ha: 31 g ai/ha; for pest or weed control at 62 g/ha: 62 g ai/ha; for pest or weed control at 125 g/ha: 125 g ai/ha
# Summary of the method: as §1
# [9] = tested on: windgrass (Apera spica-venti); settings: scale 0 to 100, read-out: Plant response rating, Windgrass; for pest or weed control at 16 g/ha: 16 g ai/ha; for pest or weed control at 62 g/ha: 62 g ai/ha; for pest or weed control at 125 g/ha: 125 g ai/ha
# Summary of the method: as §1
# [10] = post-emergence, 31 g ai/ha, Postemergence
smiles,measurement,setting,value
"FC(F)c1cc(-c2ccccc2Oc2ncc(Br)cn2)no1 [Compound 62, 5-bromo-2-[2-[5-(difluoromethyl)-3-isoxazolyl]phenoxy]pyrimidine]",pest or weed control at 16 g/ha,"[1]; post-emergence, Postemergence",10%
same,pest or weed control at 31 g/ha,"[1]; post-emergence, Postemergence",15%
same,pest or weed control at 62 g/ha,"[1]; post-emergence, Postemergence",20%
same,pest or weed control at 125 g/ha,"[1]; post-emergence, Postemergence",40%
same,pest or weed control at 16 g/ha,"[1]; pre-emergence, Preemergence",0%
same,pest or weed control at 31 g/ha,"[1]; pre-emergence, Preemergence",0%
same,pest or weed control at 62 g/ha,"[1]; pre-emergence, Preemergence",10%
same,pest or weed control at 125 g/ha,"[1]; pre-emergence, Preemergence",20%
same,pest or weed control at 16 g/ha,"kochia (Kochia scoparia); post-emergence, Postemergence",65%
same,pest or weed control at 31 g/ha,"kochia (Kochia scoparia); post-emergence, Postemergence",75%
same,pest or weed control at 62 g/ha,"kochia (Kochia scoparia); post-emergence, Postemergence",90%
same,pest or weed control at 125 g/ha,"kochia (Kochia scoparia); post-emergence, Postemergence",95%
same,pest or weed control at 16 g/ha,"kochia (Kochia scoparia); pre-emergence, Preemergence",0%
same,pest or weed control at 31 g/ha,"kochia (Kochia scoparia); pre-emergence, Preemergence",5%
same,pest or weed control at 62 g/ha,"kochia (Kochia scoparia); pre-emergence, Preemergence",85%
same,pest or weed control at 125 g/ha,"kochia (Kochia scoparia); pre-emergence, Preemergence",100%
same,pest or weed control at 16 g/ha,"[2]; post-emergence, Postemergence",70%
same,pest or weed control at 31 g/ha,[2]; [10],95%
same,pest or weed control at 62 g/ha,"[2]; post-emergence, Postemergence",100%
same,pest or weed control at 125 g/ha,"[2]; post-emergence, Postemergence",100%
same,pest or weed control at 16 g/ha,"[2]; pre-emergence, Preemergence",95%
same,pest or weed control at 62 g/ha,"[2]; pre-emergence, Preemergence",95%
same,pest or weed control at 125 g/ha,"[2]; pre-emergence, Preemergence",100%
same,pest or weed control at 16 g/ha,"[3]; post-emergence, Postemergence",65%
same,pest or weed control at 31 g/ha,"[3]; post-emergence, Postemergence",70%
same,pest or weed control at 62 g/ha,"[3]; post-emergence, Postemergence",90%
same,pest or weed control at 125 g/ha,"[3]; post-emergence, Postemergence",100%
same,pest or weed control at 16 g/ha,"[3]; pre-emergence, Preemergence",25%
same,pest or weed control at 31 g/ha,"[3]; pre-emergence, Preemergence",40%
same,pest or weed control at 62 g/ha,"[3]; pre-emergence, Preemergence",95%
same,pest or weed control at 125 g/ha,"[3]; pre-emergence, Preemergence",100%
same,pest or weed control at 16 g/ha,"[4]; post-emergence, Postemergence",35%
same,pest or weed control at 31 g/ha,"[4]; post-emergence, Postemergence",35%
same,pest or weed control at 62 g/ha,"[4]; post-emergence, Postemergence",65%
same,pest or weed control at 125 g/ha,"[4]; post-emergence, Postemergence",70%
same,pest or weed control at 16 g/ha,"[4]; pre-emergence, Preemergence",15%
same,pest or weed control at 31 g/ha,"[4]; pre-emergence, Preemergence",20%
same,pest or weed control at 62 g/ha,"[4]; pre-emergence, Preemergence",40%
same,pest or weed control at 125 g/ha,"[4]; pre-emergence, Preemergence",100%
same,pest or weed control at 16 g/ha,"[5]; post-emergence, Postemergence",0%
same,pest or weed control at 31 g/ha,"[5]; post-emergence, Postemergence",5%
same,pest or weed control at 62 g/ha,"[5]; post-emergence, Postemergence",5%
same,pest or weed control at 125 g/ha,"[5]; post-emergence, Postemergence",10%
same,pest or weed control at 16 g/ha,"[5]; pre-emergence, Preemergence",0%
same,pest or weed control at 31 g/ha,"[5]; pre-emergence, Preemergence",65%
same,pest or weed control at 62 g/ha,"[5]; pre-emergence, Preemergence",60%
same,pest or weed control at 125 g/ha,"[5]; pre-emergence, Preemergence",65%
same,pest or weed control at 16 g/ha,"[6]; post-emergence, Postemergence",75%
same,pest or weed control at 31 g/ha,"[6]; post-emergence, Postemergence",80%
same,pest or weed control at 62 g/ha,"[6]; post-emergence, Postemergence",95%
same,pest or weed control at 125 g/ha,"[6]; post-emergence, Postemergence",100%
same,pest or weed control at 16 g/ha,"[6]; pre-emergence, Preemergence",25%
same,pest or weed control at 31 g/ha,"[6]; pre-emergence, Preemergence",35%
same,pest or weed control at 62 g/ha,"[6]; pre-emergence, Preemergence",80%
same,pest or weed control at 125 g/ha,"[6]; pre-emergence, Preemergence",100%
same,pest or weed control at 16 g/ha,"[7]; post-emergence, Postemergence",40%
same,pest or weed control at 31 g/ha,"[7]; post-emergence, Postemergence",55%
same,pest or weed control at 62 g/ha,"[7]; post-emergence, Postemergence",70%
same,pest or weed control at 125 g/ha,"[7]; post-emergence, Postemergence",75%
same,pest or weed control at 16 g/ha,"[7]; pre-emergence, Preemergence",65%
same,pest or weed control at 31 g/ha,"[7]; pre-emergence, Preemergence",75%
same,pest or weed control at 62 g/ha,"[7]; pre-emergence, Preemergence",100%
same,pest or weed control at 125 g/ha,"[7]; pre-emergence, Preemergence",100%
same,pest or weed control at 16 g/ha,"[8]; post-emergence, Postemergence",75%
same,pest or weed control at 31 g/ha,"[8]; post-emergence, Postemergence",100%
same,pest or weed control at 62 g/ha,"[8]; post-emergence, Postemergence",100%
same,pest or weed control at 125 g/ha,"[8]; post-emergence, Postemergence",100%
same,pest or weed control at 16 g/ha,"[8]; pre-emergence, Preemergence",25%
same,pest or weed control at 31 g/ha,"[8]; pre-emergence, Preemergence",80%
same,pest or weed control at 62 g/ha,"[8]; pre-emergence, Preemergence",95%
same,pest or weed control at 125 g/ha,"[8]; pre-emergence, Preemergence",100%
same,pest or weed control at 16 g/ha,"wild oat (Avena fatua); post-emergence, Postemergence",15%
same,pest or weed control at 31 g/ha,"wild oat (Avena fatua); post-emergence, Postemergence",25%
same,pest or weed control at 62 g/ha,"wild oat (Avena fatua); post-emergence, Postemergence",35%
same,pest or weed control at 125 g/ha,"wild oat (Avena fatua); post-emergence, Postemergence",60%
same,pest or weed control at 16 g/ha,"wild oat (Avena fatua); pre-emergence, Preemergence",0%
same,pest or weed control at 31 g/ha,"wild oat (Avena fatua); pre-emergence, Preemergence",10%
same,pest or weed control at 62 g/ha,"wild oat (Avena fatua); pre-emergence, Preemergence",15%
same,pest or weed control at 125 g/ha,"wild oat (Avena fatua); pre-emergence, Preemergence",20%
same,pest or weed control at 16 g/ha,"[9]; post-emergence, Postemergence",10%
same,pest or weed control at 31 g/ha,[9]; [10],20%
same,pest or weed control at 62 g/ha,"[9]; post-emergence, Postemergence",30%
same,pest or weed control at 125 g/ha,"[9]; post-emergence, Postemergence",65%
same,pest or weed control at 16 g/ha,"[9]; pre-emergence, Preemergence",0%
same,pest or weed control at 62 g/ha,"[9]; pre-emergence, Preemergence",50%
same,pest or weed control at 125 g/ha,"[9]; pre-emergence, Preemergence",50%
